Reference: ChEMBL document CHEMBL1145566, “Synthesis of BC-ring model of globostellatic acid X methyl ester, an anti-angiogenic substance from marine sponge” (Bioorg Med Chem Lett, 2008)
Activity calls are given as the source filed them. The calls are words filed in the database; no cut-off is given here.

Tests used:
Type in all cases: functional, cell-based
HUVEC [1] = assay: Antiproliferative activity against human HUVEC cells after 72 hrs
[2] = Antiproliferative activity against human KB3-1 cells after 72 hrs; conditions: KB 3-1, 72 h
HUVEC [3] = assay: Inhibition of VEGF-induced migration in human HUVEC cells
HUVEC [4] = assay: Inhibition of VEGF-induced tubular formation in human HUVEC cells

Row | Compound | IC50 (HUVEC [1]) [µM] | IC50 [2] [µM] | Activity (HUVEC [3]) | Activity (HUVEC [4])
1 | CC(C)=C/C=C/C(C)=C/C=C/C(C)=C1/C(=O)C[C@H]2CC3(CC[C@]12C)OCCO3 | 13 | 20 |  | 
2 | CC(C)=C/C=C/C(C)=C/C=C/C(C)=C1/C(=O)C[C@H]2CC(=O)CC[C@]12C | 2.6 | 17 |  | 
3 | CC(C)=C/C=C/C(C)=C/C=C/C(C)=C1/CC[C@H]2CC3(CC[C@]12C)OCCO3 | 8.8 | 21 |  | 
4 | COC(=O)[C@]1(C)[C@@H]2CC[C@]3(C)/C(=C(C)/C=C/C=C(C)/C=C/C=C(C)C)C(=O)C[C@H]3[C@@]2(C)CC[C@H]1OC(C)=O (stereo in doubt) |  |  | Active | Active
5 | COC(=O)[C@]1(C)[C@@H]2CC[C@]3(C)\C(=C(C)/C=C/C=C(C)/C=C/C=C(C)C)C(=O)C[C@H]3[C@@]2(C)CC[C@H]1OC(C)=O (stereo in doubt) | 0.09 | 14 | Active | Active
6 | COC(=O)[C@]1(C)[C@@H]2CC[C@]3(C)/C(=C(C)/C=C/C=C(C)\C=C\C=C(C)C)C(=O)C[C@H]3[C@@]2(C)CC[C@H]1OC(C)=O (stereo in doubt) |  |  | Active | Active
7 | COC(=O)[C@]1(C)[C@@H]2CC[C@]3(C)\C(=C(C)/C=C/C=C(C)\C=C\C=C(C)C)C(=O)C[C@H]3[C@@]2(C)CC[C@H]1OC(C)=O (stereo in doubt) |  |  | Active | Active
